Key:
Assay in all cases: Bliss excess, mean over the matrix (fraction); higher = more synergy
HuO-3N1 (Osteosarcoma) = test system: HuO-3N1 (Osteosarcoma)
How it was run: (§1)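 Cell lines in DMEM/F12 or RPMI with 10% FBS were plated in 1536-well plates, held 24 hours at 37°C, 5% CO2, then given two-drug dose matrices for 72 hours (DMSO typically 0.2%). Viability was read by CellTiter-Glo 2.0 luminescence and scaled as inhibition from 0 (vehicle wells) to 1 (blank wells). Combination Emax is the second-highest inhibition in the matrix; Bliss excess is observed combination effect minus expected EA + EB − EA·EB, EA and EB being single-agent effects.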

[1] = test system: SW684 (Other Solid Carcinomas)
How it was run: as §1

[2] = test system: SNU-175 (Colorectal Carcinoma)
How it was run: as §1

[3] = test system: NCI-H196 (Small Cell Lung Carcinoma)
How it was run: as §1

[4] = test system: EB-3 (Burkitt's Lymphoma)
How it was run: as §1

[5] = test system: LOUCY (T-Lymphoblastic Leukemia)
How it was run: as §1

[6] = test system: CML-T1 (Chronic Myelogenous Leukemia)
How it was run: as §1

[7] = test system: Caov-3 (Ovarian Carcinoma)
How it was run: as §1

[8] = test system: RERF-LC-KJ (Lung Adenocarcinoma)
How it was run: as §1

[9] = test system: PANC-02-03 (Pancreatic Carcinoma)
How it was run: as §1

[10] = test system: BALL-1 (B-Lymphoblastic Leukemia)
How it was run: as §1

[11] = test system: OV-90 (Ovarian Carcinoma)
How it was run: as §1

[12] = test system: RMG-I (Ovarian Carcinoma)
How it was run: as §1

[13] = test system: Becker (Low Grade Glioma)
How it was run: as §1

[14] = test system: LAMA-84 (Chronic Myelogenous Leukemia)
How it was run: as §1

[15] = test system: NCI-H1155 (Non-Small Cell Lung Carcinoma)
How it was run: as §1

[16] = test system: Calu-6 (Non-Small Cell Lung Carcinoma)
How it was run: as §1

[17] = test system: AN3-CA (Endometrial Carcinoma)
How it was run: as §1

[18] = test system: NCI-H1623 (Lung Adenocarcinoma)
How it was run: as §1

[19] = test system: NCI-H1755 (Lung Adenocarcinoma)
How it was run: as §1

Structure (SMILES)	Bliss excess (HuO-3N1 (Osteosarcoma))	Bliss excess [1]	Bliss excess [2]	Bliss excess [3]	Bliss excess [4]	Bliss excess [5]	Bliss excess [6]	Bliss excess [7]	Bliss excess [8]	Bliss excess [9]	Bliss excess [10]	Bliss excess [11]	Bliss excess [12]	Bliss excess [13]	Bliss excess [14]	Bliss excess [15]	Bliss excess [16]	Bliss excess [17]	Bliss excess [18]	Bliss excess [19]
CC1(C)CCC(CN2CCN(c3ccc(C(=O)NS(=O)(=O)c4ccc(NCC5CCOCC5)c([N+](=O)[O-])c4)c(Oc4cnc5[nH]ccc5c4)c3)CC2)=C(c2ccc(Cl)cc2)C1 [Venetoclax] + COc1cc(Nc2ncc3c(n2)-c2ccc(Cl)cc2C(c2c(F)cccc2OC)=NC3)ccc1C(=O)O [Alisertib] (first compound max 1 µM, 7x7, partner max 10 µM)	-0.0154	-0.0688	0.007	-0.0371	-0.0103	0.0646	0.0154	-0.119	-0.0527	-0.0527	0.0181	-0.0536	-0.0513	0.0786	-0.0447	0.346	-0.0071	0.0374	0.045	-0.0281
Cc1c2c(nn1C)CSCc1cc(n(C)n1)CSc1cc(c3ccccc3c1)OCCCc1c(C(=O)O)n(C)c3c-2c(Cl)ccc13 [AZD5991] + C[C@@H]1COCCN1C2=NC(=NC(=C2)C3(CC3)[S@](=N)(=O)C)C4=C5C=CNC5=NC=C4 [AZD6738] (first compound max 1 µM, 7x7, partner max 10 µM)	0.0446	0.0472	0.135	0.0443	0.0209	-0.0398	-0.012	0.0293	0.0331	0.0205	0.0406	0.0235	0.0575	0.0152	-0.0056	0.0521	0.0282	0.0454	0.0581	-0.0171
CC1(C)CCC(CN2CCN(c3ccc(C(=O)NS(=O)(=O)c4ccc(NCC5CCOCC5)c([N+](=O)[O-])c4)c(Oc4cnc5[nH]ccc5c4)c3)CC2)=C(c2ccc(Cl)cc2)C1 [Venetoclax] + C=CCn1c(=O)c2cnc(Nc3ccc(N4CCN(C)CC4)cc3)nc2n1-c1cccc(C(C)(C)O)n1 [AZD1775] (first compound max 1 µM, partner max 1 µM)	-0.0172	0.032	-0.0735	-0.0007	-0.0193	0.0193	0.0106	0.0265	-0.0394	-0.0699	0.0171	-0.0168	-0.0409	0.0593	0.0884	-0.0417	-0.0317	-0.0253	-0.0218	0.054
COc1cc2c(cc1OCCCCCOc1cc3c(cc1OC)C(=O)N1C=C(C)C[C@H]1C=N3)N=C[C@@H]1CC(C)=CN1C2=O [SG3199] + O=C(c1cc(Cc2n[nH]c(=O)c3ccccc23)ccc1F)N1CCN(C(=O)C2CC2)CC1 [Olaparib] (first compound max 0.001 µM, 7x7, partner max 10 µM)	-0.0446	-0.056	-0.0317	-0.0387	-0.0509	-0.039	-0.006	-0.0475	-0.0235	-0.0487	0.0476	-0.0422	-0.0599	-0.0361	-0.0015	0.0119	-0.013	-0.0292	-0.0342	-0.0207
CC1(C)CCC(CN2CCN(c3ccc(C(=O)NS(=O)(=O)c4ccc(NCC5CCOCC5)c([N+](=O)[O-])c4)c(Oc4cnc5[nH]ccc5c4)c3)CC2)=C(c2ccc(Cl)cc2)C1 [Venetoclax] + Cc1cc2ncnn2cc1Nc1ncc2c(n1)n(C1CCOCC1)c(=O)n2C [AZD7648] (first compound max 1 µM, 7x7, partner max 10 µM)	0.044	-0.0627	-0.0327	-0.0385	-0.0225	0.0678	-0.0195	-0.159	-0.0564	-0.0646	-0.0008	-0.0639	-0.0277	0.0128	-0.0041	-0.041	0.0067	-0.0108	-0.0006	-0.025

— the supplement of paper PMC11061612
